Consider eleven compounds from patent publication EP4745137A1 (Gluetacs Therapeutics (Shanghai) Co., Ltd., priority 2023, dated 2025).

Molecules are shown by their SMILES. Where two headings read alike, the source gives them in different places.

Assay [1] concerns the target T1, WEE1 (Homo sapiens, UniProt P30291+Q96SW2).
T1 construct: endogenous in cells; host or cells: hPBMCs (Milecell Biotechnologies)
In words: Western-blot assay of substrate protein degradation in hPBMCs, WEE1. The conditions noted are these: 24 hours of compound treatment, 50 nM and 500 nM tested (concentration behind the class not stated). Format: cell-based.

Assay [2] has as its target T2, IKZF1 (Homo sapiens, UniProt Q13422+Q96SW2).
T2 construct: endogenous in cells; host or cells: hPBMCs (Milecell Biotechnologies)
Nature of the assay: Western-blot assay of substrate protein degradation in hPBMCs, IKZF1. The format is cell-based. The settings on record: 24 hours of compound treatment, 50 nM and 500 nM tested (concentration behind the class not stated).

Assay [3] concerns the target T3, IKZF2 (Homo sapiens, UniProt Q96SW2+Q9UKS7).
T3 construct: endogenous in cells; host or cells: hPBMCs (Milecell Biotechnologies)
In words: Western-blot assay of substrate protein degradation in hPBMCs, IKZF2. The settings on record: 24 hours of compound treatment, 50 nM and 500 nM tested (concentration behind the class not stated). Format: cell-based.

Assay [4] has as its target T4, IKZF3 (Homo sapiens, UniProt Q96SW2+Q9UKT9).
T4 construct: endogenous in cells; host or cells: hPBMCs (Milecell Biotechnologies)
Nature of the assay: Western-blot assay of substrate protein degradation in hPBMCs, IKZF3. The conditions noted are these: 24 hours of compound treatment, 50 nM and 500 nM tested (concentration behind the class not stated). The format is cell-based.

Assay [5] has as its target T5, CK1α (Homo sapiens, UniProt P48729+Q96SW2).
T5 construct: endogenous in cells; host or cells: hPBMCs (Milecell Biotechnologies)
Nature of the assay: Western-blot assay of substrate protein degradation in hPBMCs, CK1α. Format: cell-based. The settings on record: 24 hours of compound treatment, 50 nM and 500 nM tested (concentration behind the class not stated).

Assay [6] concerns the target T6, GSPT1 (Homo sapiens, UniProt P15170+Q96SW2).
T6 construct: endogenous in cells; host or cells: hPBMCs (Milecell Biotechnologies)
In words: Western-blot assay of substrate protein degradation in hPBMCs, GSPT1. Format: cell-based. The conditions noted are these: 24 hours of compound treatment, 50 nM and 500 nM tested (concentration behind the class not stated).

Assay [7] deals with MV-4-11. In words: Tumor cell proliferation inhibition (CellTiter-Meiluncell Luminescent Cell Viability Assay), MV-4-11.
Protocol: The tumor cells used herein were cultured in a cell culture medium listed in table 2 at 37°C in an incubator with 5% CO2. Prior to experimentation, all cell lines used were correctly identified by STR profiling, and tested negative for mycoplasma contamination using a mycoplasma detection kit through routine screenings.
On the following day, the test compounds of the present disclosure were subjected to serial dilution. […] Subsequently, 0.5 µL of the test compound dilution was transferred into the 96-well plate containing the cells, with each well containing 100 µL of cell culture medium. […] Into the 96-well plate, the diluted test compounds and corresponding detection reagents were added, resulting in final test compound concentrations of 500 nM and 10 nM, respectively.
After the cells were treated with the compounds of the present disclosure for a specified period (the treatment durations were shown in Table 3), the cell viability assay reagent was added to the culture medium according to the kit's instructions to determine cell viability. […] All controls were treated using the same procedure as the compounds of the present disclosure. The growth inhibition curves for the compounds of the present disclosure were plotted using Prism GraphPad software, and the IC50 values were calculated therefrom.
Setting [8] is: Homo sapiens, MV4-11, read-out: inhibitory activity (IC50, nM) against tumor cells proliferation, MV-4-11.

T2 sequence (Q13422 whole entry): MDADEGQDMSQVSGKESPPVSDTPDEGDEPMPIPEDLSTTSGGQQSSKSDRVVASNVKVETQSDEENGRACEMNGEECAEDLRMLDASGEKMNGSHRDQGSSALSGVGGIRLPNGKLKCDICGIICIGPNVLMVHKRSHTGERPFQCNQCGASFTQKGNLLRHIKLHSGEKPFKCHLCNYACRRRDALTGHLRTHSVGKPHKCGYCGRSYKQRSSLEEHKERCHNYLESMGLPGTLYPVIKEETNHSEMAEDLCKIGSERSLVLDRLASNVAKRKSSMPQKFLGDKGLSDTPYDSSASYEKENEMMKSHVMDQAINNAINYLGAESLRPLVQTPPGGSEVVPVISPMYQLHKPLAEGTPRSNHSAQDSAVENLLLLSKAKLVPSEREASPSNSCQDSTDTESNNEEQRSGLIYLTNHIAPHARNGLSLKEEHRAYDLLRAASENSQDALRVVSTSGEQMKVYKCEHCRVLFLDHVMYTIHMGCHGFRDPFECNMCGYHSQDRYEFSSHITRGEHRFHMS
T2 sequence (Q96SW2 whole entry): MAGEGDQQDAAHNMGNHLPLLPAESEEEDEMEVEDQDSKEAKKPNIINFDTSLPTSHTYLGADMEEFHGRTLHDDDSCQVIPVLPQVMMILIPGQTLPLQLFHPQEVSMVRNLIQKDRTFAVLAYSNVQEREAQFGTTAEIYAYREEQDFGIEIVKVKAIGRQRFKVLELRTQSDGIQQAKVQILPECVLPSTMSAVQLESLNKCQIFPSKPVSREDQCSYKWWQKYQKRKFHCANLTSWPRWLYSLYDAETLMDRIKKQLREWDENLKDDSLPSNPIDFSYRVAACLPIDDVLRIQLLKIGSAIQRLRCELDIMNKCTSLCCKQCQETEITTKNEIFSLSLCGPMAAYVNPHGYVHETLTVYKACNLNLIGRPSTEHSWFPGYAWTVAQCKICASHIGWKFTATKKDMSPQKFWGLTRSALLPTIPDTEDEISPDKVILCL
T2 sequence (Q16531 whole entry partner): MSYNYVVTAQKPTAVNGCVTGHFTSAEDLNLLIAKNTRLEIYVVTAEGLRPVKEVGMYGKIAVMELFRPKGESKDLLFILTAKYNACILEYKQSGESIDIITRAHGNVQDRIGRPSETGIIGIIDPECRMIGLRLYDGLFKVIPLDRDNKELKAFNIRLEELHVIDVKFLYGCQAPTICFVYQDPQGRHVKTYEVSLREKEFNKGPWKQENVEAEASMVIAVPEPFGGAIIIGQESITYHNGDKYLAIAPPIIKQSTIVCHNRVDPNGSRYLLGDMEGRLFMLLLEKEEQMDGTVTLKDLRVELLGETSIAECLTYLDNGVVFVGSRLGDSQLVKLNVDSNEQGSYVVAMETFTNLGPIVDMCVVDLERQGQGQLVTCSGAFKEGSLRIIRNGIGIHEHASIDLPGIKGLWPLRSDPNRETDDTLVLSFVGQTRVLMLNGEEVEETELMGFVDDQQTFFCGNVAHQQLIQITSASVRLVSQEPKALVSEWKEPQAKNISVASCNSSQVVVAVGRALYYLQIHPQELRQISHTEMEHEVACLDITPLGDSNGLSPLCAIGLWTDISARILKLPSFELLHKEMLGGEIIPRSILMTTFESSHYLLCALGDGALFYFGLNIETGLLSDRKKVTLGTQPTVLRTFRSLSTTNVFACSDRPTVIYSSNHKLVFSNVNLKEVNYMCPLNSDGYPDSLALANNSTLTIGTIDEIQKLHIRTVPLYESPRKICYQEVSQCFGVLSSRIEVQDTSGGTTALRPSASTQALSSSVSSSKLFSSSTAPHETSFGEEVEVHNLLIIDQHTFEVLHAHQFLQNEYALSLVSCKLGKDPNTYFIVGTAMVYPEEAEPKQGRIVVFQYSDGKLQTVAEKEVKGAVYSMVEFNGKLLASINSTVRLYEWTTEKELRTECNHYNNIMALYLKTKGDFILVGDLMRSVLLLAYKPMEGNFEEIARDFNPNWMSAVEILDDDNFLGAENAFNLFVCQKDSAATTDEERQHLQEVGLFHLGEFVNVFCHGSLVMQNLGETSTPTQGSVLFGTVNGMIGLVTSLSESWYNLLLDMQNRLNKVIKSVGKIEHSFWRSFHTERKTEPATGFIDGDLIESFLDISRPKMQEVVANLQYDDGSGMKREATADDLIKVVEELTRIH
T4 sequence (Q9UKT9 whole entry): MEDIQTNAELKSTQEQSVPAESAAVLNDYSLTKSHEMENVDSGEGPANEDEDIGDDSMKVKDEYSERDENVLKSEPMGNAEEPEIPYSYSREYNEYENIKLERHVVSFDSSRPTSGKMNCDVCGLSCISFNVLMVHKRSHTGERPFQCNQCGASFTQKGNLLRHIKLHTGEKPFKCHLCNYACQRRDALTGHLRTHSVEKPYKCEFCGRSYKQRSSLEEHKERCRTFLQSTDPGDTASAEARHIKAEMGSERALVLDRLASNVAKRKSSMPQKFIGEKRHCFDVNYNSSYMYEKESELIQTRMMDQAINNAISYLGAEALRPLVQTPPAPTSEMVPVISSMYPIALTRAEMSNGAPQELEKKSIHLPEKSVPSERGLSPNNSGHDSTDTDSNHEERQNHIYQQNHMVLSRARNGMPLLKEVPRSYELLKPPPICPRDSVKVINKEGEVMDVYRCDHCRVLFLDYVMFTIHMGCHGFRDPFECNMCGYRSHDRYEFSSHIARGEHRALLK
T4 sequence (Q96SW2 whole entry): as the sequence (Q96SW2 whole entry) above
T4 sequence (Q16531 whole entry partner): as the sequence (Q16531 whole entry partner) above
T3 sequence (Q9UKS7 whole entry): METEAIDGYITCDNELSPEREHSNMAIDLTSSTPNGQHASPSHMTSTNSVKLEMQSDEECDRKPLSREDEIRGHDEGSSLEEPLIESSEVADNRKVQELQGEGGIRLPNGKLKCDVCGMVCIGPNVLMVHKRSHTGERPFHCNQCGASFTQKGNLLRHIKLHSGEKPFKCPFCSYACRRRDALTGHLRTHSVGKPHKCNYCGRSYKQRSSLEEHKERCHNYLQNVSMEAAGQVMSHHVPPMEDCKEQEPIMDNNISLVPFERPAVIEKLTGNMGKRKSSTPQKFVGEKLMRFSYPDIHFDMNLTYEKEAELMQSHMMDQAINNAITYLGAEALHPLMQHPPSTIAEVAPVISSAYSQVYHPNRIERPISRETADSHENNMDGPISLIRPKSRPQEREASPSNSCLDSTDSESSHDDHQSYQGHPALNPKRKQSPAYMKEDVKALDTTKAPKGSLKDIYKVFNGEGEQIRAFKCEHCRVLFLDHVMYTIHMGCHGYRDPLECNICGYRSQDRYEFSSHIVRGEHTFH
T3 sequence (Q96SW2 whole entry): as the sequence (Q96SW2 whole entry) above
T3 sequence (Q16531 whole entry partner): as the sequence (Q16531 whole entry partner) above
T1 sequence (P30291 whole entry): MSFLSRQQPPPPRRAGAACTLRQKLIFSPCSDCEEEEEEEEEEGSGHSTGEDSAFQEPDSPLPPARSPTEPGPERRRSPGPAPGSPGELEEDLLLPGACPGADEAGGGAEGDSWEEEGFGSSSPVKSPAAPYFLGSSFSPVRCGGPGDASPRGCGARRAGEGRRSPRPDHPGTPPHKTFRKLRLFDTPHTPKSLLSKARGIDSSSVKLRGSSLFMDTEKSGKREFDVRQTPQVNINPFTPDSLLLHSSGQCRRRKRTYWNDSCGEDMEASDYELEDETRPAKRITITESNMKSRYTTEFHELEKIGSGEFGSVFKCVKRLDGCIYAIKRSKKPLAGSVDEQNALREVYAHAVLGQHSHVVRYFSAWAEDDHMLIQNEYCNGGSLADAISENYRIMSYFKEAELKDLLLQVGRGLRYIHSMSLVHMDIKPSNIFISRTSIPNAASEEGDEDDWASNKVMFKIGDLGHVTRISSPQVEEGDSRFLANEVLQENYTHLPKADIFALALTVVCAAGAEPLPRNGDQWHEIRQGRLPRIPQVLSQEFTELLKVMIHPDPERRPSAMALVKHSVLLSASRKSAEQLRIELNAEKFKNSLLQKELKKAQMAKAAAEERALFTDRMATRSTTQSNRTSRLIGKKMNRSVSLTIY
T1 sequence (Q96SW2 whole entry): as the sequence (Q96SW2 whole entry) above
T1 sequence (Q16531 whole entry partner): as the sequence (Q16531 whole entry partner) above
T6 sequence (P15170 whole entry): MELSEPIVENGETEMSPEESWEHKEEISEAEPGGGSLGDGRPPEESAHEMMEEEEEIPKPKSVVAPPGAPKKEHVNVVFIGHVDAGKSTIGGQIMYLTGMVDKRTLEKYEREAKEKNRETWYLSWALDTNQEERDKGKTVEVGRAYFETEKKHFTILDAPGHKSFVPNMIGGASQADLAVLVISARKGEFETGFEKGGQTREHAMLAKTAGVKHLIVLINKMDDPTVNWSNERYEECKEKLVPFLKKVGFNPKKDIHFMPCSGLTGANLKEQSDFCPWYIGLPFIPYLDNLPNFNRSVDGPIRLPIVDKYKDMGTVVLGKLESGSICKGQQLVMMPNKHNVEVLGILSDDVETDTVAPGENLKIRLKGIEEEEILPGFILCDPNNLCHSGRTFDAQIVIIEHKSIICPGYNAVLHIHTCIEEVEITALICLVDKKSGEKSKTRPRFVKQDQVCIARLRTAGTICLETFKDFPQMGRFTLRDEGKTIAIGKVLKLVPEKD
T6 sequence (Q96SW2 whole entry): as the sequence (Q96SW2 whole entry) above
T6 sequence (Q16531 whole entry partner): as the sequence (Q16531 whole entry partner) above

Turning to `O=C1CCC(N2C(=O)c3ccc(CN4CCN(c5nccc(Cl)c5Br)CC4)cc3C2=O)C(=O)N1` (stereo not drawn) [GT-06601, 5-((4-(3-bromo-4-chloropyridin-2-yl)piperazin-1-yl)methyl)-2-(2,6-dioxopiperidin-3-yl)isoindoline-1,3-dione], the “Weel substrate protein remaining %” value in assay [1] is reported as “B (80%< substrate protein remaining %≤ 100%)”. Further, the “IKZF 1 substrate protein remaining %” value in assay [2] is listed as “B (80%< substrate protein remaining %≤ 100%)”. For the same compound, the “IKZF2 substrate protein remaining %” value in assay [3] is given as “B (80%< substrate protein remaining %≤ 100%)”. In addition, the “IKZF3 substrate protein remaining %” value in assay [4] was “B (80%< substrate protein remaining %≤ 100%)”. The “CK1a substrate protein remaining %” value in assay [5] was “B (80%< substrate protein remaining %≤ 100%)”. The “GSPT1 substrate protein remaining %” value in assay [6] is recorded as “A (0% ≤ substrate protein remaining % ≤ 80%)”. Also, in assay [7] (setting [8]), the IC50 was in the range of 100 to 500 nM.

`O=C1CCC(N2C(=O)c3ccc(CN4CC=C(c5ccnc(F)c5F)CC4)cc3C2=O)C(=O)N1` (stereo not drawn) [GT-06614, 5-((2',3'-difluoro-3,6-dihydro-[4,4'-bipyridin]-1(2H)-yl)methyl)-2-(2,6-dioxopiperidin-3-yl)isoindoline-1,3-dione]: the “Weel substrate protein remaining %” value in assay [1] is “B (80%< substrate protein remaining %≤ 100%)”. For the same compound, in assay [2], the “IKZF 1 substrate protein remaining %” value was “B (80%< substrate protein remaining %≤ 100%)”. The “IKZF2 substrate protein remaining %” value in assay [3] was “B (80%< substrate protein remaining %≤ 100%)”. Moreover, in assay [4], the “IKZF3 substrate protein remaining %” value is “B (80%< substrate protein remaining %≤ 100%)”. Moreover, the “CK1a substrate protein remaining %” value in assay [5] is given as “A (0% ≤ substrate protein remaining % ≤ 80%)”. For the same compound, the “GSPT1 substrate protein remaining %” value in assay [6] is listed as “A (0% ≤ substrate protein remaining % ≤ 80%)”. Further, in assay [7] (setting [8]), the IC50 was in the range of 10 to 50 nM.

In the case of `O=C1CCC(N2C(=O)c3ccc(CN4CCN(c5ccnc(Cl)c5F)CC4)cc3C2=O)C(=O)N1` (stereo not drawn) [GT-06620, 5-((4-(2-chloro-3-fluoropyridin-4-yl)piperazin-1-yl)methyl)-2-(2,6-dioxopiperidin-3-yl)isoindoline-1,3-dione], the “Weel substrate protein remaining %” value in assay [1] was “B (80%< substrate protein remaining %≤ 100%)”. The “IKZF 1 substrate protein remaining %” value in assay [2] is “B (80%< substrate protein remaining %≤ 100%)”. In assay [3], the “IKZF2 substrate protein remaining %” value is reported as “B (80%< substrate protein remaining %≤ 100%)”. The “IKZF3 substrate protein remaining %” value in assay [4] is on record as “A (0% ≤ substrate protein remaining % ≤ 80%)”. For the same compound, the “CK1a substrate protein remaining %” value in assay [5] is “B (80%< substrate protein remaining %≤ 100%)”. Also, the “GSPT1 substrate protein remaining %” value in assay [6] was “A (0% ≤ substrate protein remaining % ≤ 80%)”. In addition, the IC50 in assay [7] (setting [8]) was 100 to 500 nM.

In the case of `O=C1CCC(N2C(=O)c3ccc(CN4CCN(c5ncnc(Cl)c5Cl)CC4)cc3C2=O)C(=O)N1` (stereo not drawn) [GT-06623, 5-((4-(5,6-dichloropyrimidin-4-yl)piperazin-1-yl)methyl)-2-(2,6-dioxopiperidin-3-yl)isoindoline-1,3-dione], the IC50 in assay [7] (setting [8]) lay within 100 to 500 nM.

Regarding `O=C1CCC(N2C(=O)c3ccc(CN4CCN(c5cc(Cl)nnc5Cl)CC4)cc3C2=O)C(=O)N1` (stereo not drawn) [GT-06625, 5-((4-(3,6-dichloropyridazin-4-yl)piperazin-1-yl)methyl)-2-(2,6-dioxopiperidin-3-yl)isoindoline-1,3-dione], the “Weel substrate protein remaining %” value in assay [1] is “B (80%< substrate protein remaining %≤ 100%)”. The “IKZF 1 substrate protein remaining %” value in assay [2] was “B (80%< substrate protein remaining %≤ 100%)”. The “IKZF2 substrate protein remaining %” value in assay [3] was “B (80%< substrate protein remaining %≤ 100%)”. For the same compound, the “IKZF3 substrate protein remaining %” value in assay [4] is given as “B (80%< substrate protein remaining %≤ 100%)”. Besides, in assay [5], the “CK1a substrate protein remaining %” value is “B (80%< substrate protein remaining %≤ 100%)”. In addition, the “GSPT1 substrate protein remaining %” value in assay [6] is reported as “A (0% ≤ substrate protein remaining % ≤ 80%)”. Further, the IC50 in assay [7] (setting [8]) lay within 100 to 500 nM.

For the compound `O=C1CCC(N2C(=O)c3ccc(CN4CCN(c5ncncn5)CC4)cc3C2=O)C(=O)N1` (stereo not drawn) [GT-06626, 5-((4-(1,3,5-triazin-2-yl)piperazin-1-yl)methyl)-2-(2,6-dioxopiperidin-3-yl)isoindoline-1,3-dione], the “IKZF 1 substrate protein remaining %” value in assay [2] is “B (80%< substrate protein remaining %≤ 100%)”. The “IKZF2 substrate protein remaining %” value in assay [3] is recorded as “B (80%< substrate protein remaining %≤ 100%)”. Further, the “IKZF3 substrate protein remaining %” value in assay [4] is reported as “B (80%< substrate protein remaining %≤ 100%)”. Besides, in assay [6], the “GSPT1 substrate protein remaining %” value is on record as “A (0% ≤ substrate protein remaining % ≤ 80%)”. For the same compound, the IC50 in assay [7] (read-out: inhibitory activity (IC50, nM) against tumor cells proliferation, MV-4-11) fell in the range of 50 to 100 nM.

Take `O=C1CCC(N2C(=O)c3ccc(CN4CCN(c5nsc6cc(F)ccc56)CC4)cc3C2=O)C(=O)N1` (stereo not drawn) [GT-06631, 2-(2,6-dioxopiperidin-3-yl)-5-((4-(6-fluorobenzo[d]isothiazol-3-yl)piperazin-1-yl)methyl)isoindoline-1,3-dione]: the “Weel substrate protein remaining %” value in assay [1] is recorded as “A (0% ≤ substrate protein remaining % ≤ 80%)”. Besides, the “IKZF 1 substrate protein remaining %” value in assay [2] was “B (80%< substrate protein remaining %≤ 100%)”. In addition, the “IKZF2 substrate protein remaining %” value in assay [3] is listed as “B (80%< substrate protein remaining %≤ 100%)”. The “IKZF3 substrate protein remaining %” value in assay [4] was “B (80%< substrate protein remaining %≤ 100%)”. In addition, in assay [5], the “CK1a substrate protein remaining %” value was “A (0% ≤ substrate protein remaining % ≤ 80%)”. The “GSPT1 substrate protein remaining %” value in assay [6] was “A (0% ≤ substrate protein remaining % ≤ 80%)”. Besides, the IC50 in assay [7] (setting [8]) was in the range of 100 to 500 nM.

Turning to `O=C1CCC(N2C(=O)c3ccc(CN4CCC(N5CCc6cc(F)ccc65)CC4)cc3C2=O)C(=O)N1` (stereo not drawn) [GT-06637, 2-(2,6-dioxopiperidin-3-yl)-5-((4-(5-fluoroindolin-1-yl)piperidin-1-yl)methyl)isoindoline-1,3-dione], the “Weel substrate protein remaining %” value in assay [1] is “A (0% ≤ substrate protein remaining % ≤ 80%)”. Further, in assay [2], the “IKZF 1 substrate protein remaining %” value is given as “A (0% ≤ substrate protein remaining % ≤ 80%)”. Besides, the “IKZF2 substrate protein remaining %” value in assay [3] is reported as “A (0% ≤ substrate protein remaining % ≤ 80%)”. Further, the “IKZF3 substrate protein remaining %” value in assay [4] is recorded as “A (0% ≤ substrate protein remaining % ≤ 80%)”. Moreover, the “CK1a substrate protein remaining %” value in assay [5] is “A (0% ≤ substrate protein remaining % ≤ 80%)”. For the same compound, in assay [6], the “GSPT1 substrate protein remaining %” value is reported as “A (0% ≤ substrate protein remaining % ≤ 80%)”. Moreover, the IC50 in assay [7] (setting [8]) fell in the range of 50 to 100 nM.

As for `O=C1CCC(N2C(=O)c3ccc(CN4CCC(n5cnc6cc(F)ccc65)CC4)cc3C2=O)C(=O)N1` (stereo not drawn) [GT-06638, 2-(2,6-dioxopiperidin-3-yl)-5-((4-(5-fluoro-1H-benzo[d]imidazol-1-yl)piperidin-1-yl)methyl)isoindoline-1,3-dione], the “Weel substrate protein remaining %” value in assay [1] was “A (0% ≤ substrate protein remaining % ≤ 80%)”. In assay [2], the “IKZF 1 substrate protein remaining %” value is recorded as “B (80%< substrate protein remaining %≤ 100%)”. Moreover, in assay [3], the “IKZF2 substrate protein remaining %” value is on record as “B (80%< substrate protein remaining %≤ 100%)”. In addition, the “IKZF3 substrate protein remaining %” value in assay [4] is listed as “B (80%< substrate protein remaining %≤ 100%)”. The “CK1a substrate protein remaining %” value in assay [5] is given as “A (0% ≤ substrate protein remaining % ≤ 80%)”. The “GSPT1 substrate protein remaining %” value in assay [6] is “A (0% ≤ substrate protein remaining % ≤ 80%)”. For the same compound, the IC50 in assay [7] (setting [8]) lay within 500 to 1000 nM.

Regarding `O=C1CCC(N2C(=O)c3ccc(CN4CCN(c5nc(N6CCOCC6)nc6c5SCC6)CC4)cc3C2=O)C(=O)N1` (stereo not drawn) [GT-06712, 2-(2,6-dioxopiperidin-3-yl)-5-((4-(2-morpholino-6,7-dihydrothieno[3,2-d]pyrimidin-4-yl)piperazin-1-yl)methyl)isoindoline-1,3-dione], the “Weel substrate protein remaining %” value in assay [1] is “B (80%< substrate protein remaining %≤ 100%)”. Further, the “IKZF 1 substrate protein remaining %” value in assay [2] is “B (80%< substrate protein remaining %≤ 100%)”. The “IKZF2 substrate protein remaining %” value in assay [3] is given as “B (80%< substrate protein remaining %≤ 100%)”. Further, in assay [4], the “IKZF3 substrate protein remaining %” value is reported as “B (80%< substrate protein remaining %≤ 100%)”. For the same compound, the “CK1a substrate protein remaining %” value in assay [5] was “B (80%< substrate protein remaining %≤ 100%)”. The “GSPT1 substrate protein remaining %” value in assay [6] is on record as “A (0% ≤ substrate protein remaining % ≤ 80%)”. In assay [7] (setting [8]), the IC50 lay in the range of 100 to 500 nM.

In the case of `O=C1CCC(N2C(=O)c3ccc(CN4CCN(c5nc(N6CCOCC6)nc6ccsc56)CC4)cc3C2=O)C(=O)N1` (stereo not drawn) [GT-06717, 2-(2,6-dioxopiperidin-3-yl)-5-((4-(2-morpholinothieno[3,2-d]pyrimidin-4-yl)piperazin-1-yl)methyl)isoindoline-1,3-dione], the “Weel substrate protein remaining %” value in assay [1] is reported as “A (0% ≤ substrate protein remaining % ≤ 80%)”. Besides, in assay [2], the “IKZF 1 substrate protein remaining %” value is “A (0% ≤ substrate protein remaining % ≤ 80%)”. The “IKZF2 substrate protein remaining %” value in assay [3] is “B (80%< substrate protein remaining %≤ 100%)”. For the same compound, the “IKZF3 substrate protein remaining %” value in assay [4] was “B (80%< substrate protein remaining %≤ 100%)”. The “CK1a substrate protein remaining %” value in assay [5] is “B (80%< substrate protein remaining %≤ 100%)”. Further, the “GSPT1 substrate protein remaining %” value in assay [6] was “A (0% ≤ substrate protein remaining % ≤ 80%)”. Further, in assay [7] (setting [8]), the IC50 fell in the range of 10 to 50 nM.
